Test results from ChEMBL document CHEMBL5046285, “Probing Fluorinated Motifs onto Dual AChE-MAO B Inhibitors: Rational Design, Synthesis, Biological Evaluation, and Early-ADME Studies” (J Med Chem, 2022).
≈ marks a conversion by molar mass, not a printed value. Calls of active or inactive are those of the source. The calls are words filed in the database; no cut-off is given here.

Experiments:
[1] = molecular target: T1, Amine oxidase [flavin-containing] B (Homo sapiens, UniProt P27338); test: Reversible inhibition of human recombinant MAO-B expressed in supersomes using kynuramine as substrate at 10 nM co-incubated with enzyme and measured over 6 hrs by spectrophotometric method; conditions: 0.01 µM
T1 sequence (P27338 whole entry): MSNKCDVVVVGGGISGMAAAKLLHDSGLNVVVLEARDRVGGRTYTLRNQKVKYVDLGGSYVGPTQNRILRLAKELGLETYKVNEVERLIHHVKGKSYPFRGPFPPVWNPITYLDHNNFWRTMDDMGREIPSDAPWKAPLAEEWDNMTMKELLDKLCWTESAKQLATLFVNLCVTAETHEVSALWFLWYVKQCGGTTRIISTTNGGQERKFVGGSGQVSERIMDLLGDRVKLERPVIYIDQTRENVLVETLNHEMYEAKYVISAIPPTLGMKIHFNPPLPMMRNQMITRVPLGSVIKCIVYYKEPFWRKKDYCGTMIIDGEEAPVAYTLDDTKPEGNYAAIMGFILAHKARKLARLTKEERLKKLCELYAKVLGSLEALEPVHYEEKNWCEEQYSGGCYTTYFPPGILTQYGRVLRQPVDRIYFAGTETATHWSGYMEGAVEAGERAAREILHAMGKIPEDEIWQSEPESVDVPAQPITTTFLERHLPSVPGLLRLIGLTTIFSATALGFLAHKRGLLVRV

[2] = molecular target: Cholinesterase (Equus caballus) (UniProt P81908); test: Inhibition of horse serum BChE at 10 uM by Ellman's spectrophotometric assay; type: cell-free
Chain of Cholinesterase (Equus caballus) (P81908 whole entry): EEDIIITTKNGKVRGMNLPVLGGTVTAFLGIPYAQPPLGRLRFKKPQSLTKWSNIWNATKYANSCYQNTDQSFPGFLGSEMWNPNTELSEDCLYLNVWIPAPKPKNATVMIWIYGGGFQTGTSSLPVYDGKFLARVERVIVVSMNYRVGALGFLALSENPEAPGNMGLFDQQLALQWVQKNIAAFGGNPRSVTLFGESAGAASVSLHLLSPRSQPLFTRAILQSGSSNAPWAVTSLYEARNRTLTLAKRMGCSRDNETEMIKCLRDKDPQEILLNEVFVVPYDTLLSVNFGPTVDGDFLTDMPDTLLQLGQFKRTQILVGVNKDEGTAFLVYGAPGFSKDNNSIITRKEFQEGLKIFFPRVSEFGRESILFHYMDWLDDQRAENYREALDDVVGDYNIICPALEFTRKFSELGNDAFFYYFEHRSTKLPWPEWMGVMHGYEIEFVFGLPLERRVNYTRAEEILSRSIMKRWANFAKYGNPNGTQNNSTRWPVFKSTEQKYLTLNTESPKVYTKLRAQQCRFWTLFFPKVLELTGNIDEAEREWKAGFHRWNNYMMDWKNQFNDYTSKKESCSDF

Acetylcholinesterase [3] = molecular target: T2, Acetylcholinesterase (Homo sapiens, UniProt P22303); test: Mixed type inhibition of human AChE by Lineweaver-Burk plot analysis
T2 sequence (P22303 whole entry): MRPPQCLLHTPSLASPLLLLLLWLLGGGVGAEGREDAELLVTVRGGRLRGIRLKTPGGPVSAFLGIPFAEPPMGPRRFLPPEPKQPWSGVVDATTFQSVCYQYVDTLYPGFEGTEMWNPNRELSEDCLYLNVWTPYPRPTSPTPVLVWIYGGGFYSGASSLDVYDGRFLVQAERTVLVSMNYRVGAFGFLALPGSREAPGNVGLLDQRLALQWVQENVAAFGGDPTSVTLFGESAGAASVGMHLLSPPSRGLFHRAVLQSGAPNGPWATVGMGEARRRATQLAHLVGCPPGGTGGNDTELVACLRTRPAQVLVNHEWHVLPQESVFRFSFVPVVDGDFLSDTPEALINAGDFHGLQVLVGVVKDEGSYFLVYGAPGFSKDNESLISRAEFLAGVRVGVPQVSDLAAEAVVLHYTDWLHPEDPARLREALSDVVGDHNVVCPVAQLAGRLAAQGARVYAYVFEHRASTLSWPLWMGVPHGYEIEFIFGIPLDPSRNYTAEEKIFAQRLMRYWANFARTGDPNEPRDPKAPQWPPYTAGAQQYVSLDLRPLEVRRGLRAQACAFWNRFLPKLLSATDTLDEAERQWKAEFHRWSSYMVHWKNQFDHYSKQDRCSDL

Acetylcholinesterase [4] = molecular target: T2, Acetylcholinesterase
Description: Inhibition of human recombinant AChE by Ellman's spectrophotometric assay

[5] = 1-Octanol/PBS buffer distribution coefficient, log D of the compound at 1 uM measured after 24 hrs at pH 7.4 by shake flask based HPLC-ES-MS/MS analysis; type: physicochemical
[6] = Apparent permeability across basolateral to apical side in human Caco-2 cells at 10 uM incubated for 60 mins by HPLC-MS/MS method; type: ADME, cell-based
HepG2 = test: Cytotoxicity against human HepG2 cells assessed as reduction in cell viability at 100 uM incubated for 4 hrs by CellTiter-Glo luminescence assay; type: toxicity, cell-based; conditions: hepg2, 4 h
[7] = Intrinsic clearance in mouse liver microsomes at 0.5 uM incubated upto 30 mins in presence of NADPH measured per mg protein by LC/MS/MS analysis; type: ADME, Microsome; conditions: read-out: CLH
SH-SY5Y [8] = test: Neuroprotective activity against NMDA -induced cytotoxicity in human SH-SY5Y cells assessed as increase in cell viability at 0.1 to 5 uM co-incubated with NMDA for 24 hrs by MTT assay; type: functional, cell-based; conditions: dose 0.1-5 µM
MAO-A = molecular target: T3, MAO-A (Homo sapiens, UniProt P21397); test: in vitro; conditions: recombinant MAO-A expressed in supersomes, probe kynuramine
T3 sequence (P21397 whole entry): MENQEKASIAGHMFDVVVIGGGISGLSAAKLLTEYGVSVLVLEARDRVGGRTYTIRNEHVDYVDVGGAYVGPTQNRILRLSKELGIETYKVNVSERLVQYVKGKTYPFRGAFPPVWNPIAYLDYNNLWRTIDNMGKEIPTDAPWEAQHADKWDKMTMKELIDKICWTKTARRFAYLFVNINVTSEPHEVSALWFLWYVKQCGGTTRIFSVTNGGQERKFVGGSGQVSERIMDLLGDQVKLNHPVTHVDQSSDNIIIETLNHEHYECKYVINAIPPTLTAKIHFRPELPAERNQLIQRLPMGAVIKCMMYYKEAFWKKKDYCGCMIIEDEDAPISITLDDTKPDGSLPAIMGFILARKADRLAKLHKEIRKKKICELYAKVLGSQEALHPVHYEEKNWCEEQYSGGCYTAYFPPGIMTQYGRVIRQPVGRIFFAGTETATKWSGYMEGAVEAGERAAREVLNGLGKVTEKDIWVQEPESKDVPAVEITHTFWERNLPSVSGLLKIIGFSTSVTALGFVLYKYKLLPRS

SH-SY5Y [9] = test: Neuroprotective activity against H2O2-induced neurotoxicity in human SH-SY5Y cells assessed as increase in cell viability at 1 to 5 uM co-incubated with H2O2 for 24 hrs by MTT assay; type: functional, cell-based; conditions: dose 1-5 µM
SH-SY5Y [10] = test: Neuroprotection against Amyloid beta-induced cytotoxicity in human SH-SY5Y cells assessed as increase in cell viability at 0.1 to 1 uM co-incubated with Amyloid beta for 24 hrs by MTT assay; type: functional, cell-based; conditions: dose 0.1-1 µM
Cytochrome P450 3A4 = Cytochrome P450 3A4 (Homo sapiens, UniProt P08684); test: Inhibition of human recombinant CYP3A4 expressed in baculosomes by fluorescent homogenous assay; type: ADME
Chain of Cytochrome P450 3A4 (P08684 whole entry): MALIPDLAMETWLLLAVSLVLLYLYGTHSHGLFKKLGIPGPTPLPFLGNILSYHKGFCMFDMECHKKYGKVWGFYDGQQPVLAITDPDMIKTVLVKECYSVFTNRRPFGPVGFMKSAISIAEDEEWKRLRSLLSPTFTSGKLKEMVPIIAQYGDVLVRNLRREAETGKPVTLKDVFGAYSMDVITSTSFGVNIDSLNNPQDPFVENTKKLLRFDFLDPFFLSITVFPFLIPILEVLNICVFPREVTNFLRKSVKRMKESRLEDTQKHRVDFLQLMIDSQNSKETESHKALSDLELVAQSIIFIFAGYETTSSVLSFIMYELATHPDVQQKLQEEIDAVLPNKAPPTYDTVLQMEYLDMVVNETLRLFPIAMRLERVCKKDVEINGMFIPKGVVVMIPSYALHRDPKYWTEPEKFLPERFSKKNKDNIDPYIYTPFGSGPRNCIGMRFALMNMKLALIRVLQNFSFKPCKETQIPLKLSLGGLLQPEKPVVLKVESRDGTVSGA

Albumin = Albumin (Homo sapiens, UniProt P02768); test: Binding affinity to human serum albumin assessed as dissociation […] constant by surface plasmon resonance assay; type: ADME, cell-free
Chain of Albumin (P02768 whole entry): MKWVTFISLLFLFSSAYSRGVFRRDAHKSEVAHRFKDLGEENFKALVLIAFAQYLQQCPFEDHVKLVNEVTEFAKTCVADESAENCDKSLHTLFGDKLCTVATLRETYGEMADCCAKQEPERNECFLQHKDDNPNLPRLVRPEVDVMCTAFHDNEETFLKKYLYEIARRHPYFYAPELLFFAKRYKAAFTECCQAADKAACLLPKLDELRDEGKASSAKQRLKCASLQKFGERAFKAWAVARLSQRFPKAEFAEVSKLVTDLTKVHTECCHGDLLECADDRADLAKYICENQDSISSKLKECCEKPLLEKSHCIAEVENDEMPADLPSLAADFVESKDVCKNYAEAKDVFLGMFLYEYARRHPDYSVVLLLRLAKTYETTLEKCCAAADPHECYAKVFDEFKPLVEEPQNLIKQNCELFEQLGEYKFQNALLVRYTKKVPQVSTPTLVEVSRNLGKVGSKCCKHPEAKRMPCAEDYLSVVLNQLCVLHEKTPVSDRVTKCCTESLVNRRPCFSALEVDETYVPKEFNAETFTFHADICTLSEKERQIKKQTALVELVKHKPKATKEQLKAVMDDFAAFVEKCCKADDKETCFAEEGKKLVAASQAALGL

[11] = Microsomal stability in human liver microsomes assessed as half life at 0.5 uM incubated upto 60 mins in presence of NADPH by LC/MS/MS analysis; type: ADME, Microsome
[12] = Microsomal stability in mouse liver microsomes assessed as half life at 0.5 uM incubated upto 30 mins in presence of NADPH by LC/MS/MS analysis; type: ADME, Microsome
[13] = Efflux ratio of apparent permeability across basolateral to apical side over apical to basolateral side in human Caco-2 cells; type: ADME, cell-based
[14] = molecular target: T1, Amine oxidase [flavin-containing] B; test: Competitive inhibition of human recombinant MAO-B expressed in supersomes using kynuramine as substrate by Lineweaver-Burk plot analysis
[15] = molecular target: T1, Amine oxidase [flavin-containing] B
Description: Inhibition of human recombinant MAO-B expressed in supersomes assessed as inhibition of 4-hydroxyquinoline formation using kynuramine as substrate by spectrofluorimetric analysis

[16] = Apparent permeability across apical to basolateral side in human Caco-2 cells at 10 uM incubated for 60 mins by HPLC-MS/MS method; type: ADME, cell-based
[17] = Chromatographic hydrophobicity index of the compound in ammonium acetate buffer at pH 7.4 by RP-HPLC analysis; type: physicochemical
Homo sapiens = organism: Homo sapiens; test: Selectivity for human recombinant MAO-B expressed in supersomes over human recombinant MAO-A expressed in supersomes
SH-SY5Y [18] = test: Cytotoxicity against human SH-SY5Y cells assessed as reduction in cell viability at 100 uM incubated for 4 hrs by CellTiter-Glo luminescence assay; type: toxicity, cell-based
[19] = Effective permeability of the compound in PBS buffer at pH 7.4 by PAMPA-BBB assay; type: ADME; conditions: read-out: Peff
[20] = Intrinsic clearance in human liver microsomes at 0.5 uM incubated upto 60 mins in presence of NADPH measured per mg protein by LC/MS/MS analysis; type: ADME, Microsome; conditions: read-out: CLH
[21] = molecular target: T1, Amine oxidase [flavin-containing] B; test: Inhibition of human recombinant MAO-B expressed in supersomes assessed as inhibition of 4-hydroxyquinoline formation using kynuramine as substrate by spectrophotometric method
[22] = Kinetic aqueous solubility of the compound in PBS incubated for 2 hrs under mild shaking at pH 7.4 by UV- vis spectrophotometric analysis; type: physicochemical; conditions: read-out: Kinetic_solubility
[23] = Cytotoxicity against human SH-SY5Y cells assessed as reduction in cell viability incubated for 4 hrs by CellTiter-Glo luminescence assay; type: toxicity, cell-based
[24] = Cytotoxicity against human HepG2 cells assessed as reduction in cell viability incubated for 4 hrs by CellTiter-Glo luminescence assay; type: toxicity, cell-based
Cholinesterase = Cholinesterase (Equus caballus, UniProt P81908)
Chain of Cholinesterase (P81908 whole entry): as the sequence (P81908 whole entry) above
Description: Inhibition of horse serum BChE by Ellman's spectrophotometric assay

In the case of `CN(CCCC(F)F)Cc1ccc(COc2ccc3c(CO)cc(=O)oc3c2)cc1`, the “inhibition (INH)” value [1] is reported as “Active”, the inhibition [2] is reported as 34% and the Ki (Acetylcholinesterase [3]) is reported as 2000 nM. It also gave an IC50 (Acetylcholinesterase [4]) of 550 nM, a logD at 24 h, 1 µM [5] of 2.48 and a Papp B→A at 1 h, 10 µM [6] of 16 ×10⁻⁶ cm/s. For the same compound, the Activity (HepG2) was “Non-Toxic”, the microsomal CLint at 0.5 µM [7] was 55.6 µL/min/mg and the Activity (SH-SY5Y [8]) was “Active”. For the same compound, the inhibition at 10 µM (MAO-A) was 34%, the Activity (SH-SY5Y [9]) was “Active” and the Activity (SH-SY5Y [10]) was “Active”. It also gave an IC50 (Cytochrome P450 3A4) of 10000 nM, a Kd (Albumin) of 11300 nM and a half-life at 0.5 µM [11] of 34.9 min. It also gave a half-life at 0.5 µM [12] of 25 min, an efflux ratio [13] of 0.6 and a Ki [14] of 13 nM. It also gave an IC50 [15] of 8.2 nM, a Papp A→B at 1 h, 10 µM [16] of 25 ×10⁻⁶ cm/s and a CHI [17] of 76.4. The Selectivity Index (Homo sapiens) was > 1250, the Activity (SH-SY5Y [18]) was “Non-Toxic” and the Papp [19] was > 14 ×10⁻⁶ cm/s. For the same compound, the microsomal CLint at 0.5 µM [20] was 39.8 µL/min/mg, the “inhibition (INH)” value [21] was “Active” and the solubility kinetic at 2 h [22] was 201 µM (≈ 83.9 µg/mL).

With `CN(Cc1ccc(COc2ccc3c(CO)cc(=O)oc3c2)cc1)Cc1cccc(F)c1` the IC50 at 4 h [23] was 40000 nM, the IC50 (Acetylcholinesterase [4]) was 330 nM and the logD at 24 h, 1 µM [5] was 4.29. The IC50 at 4 h [24] was 40000 nM, the microsomal CLint at 0.5 µM [7] was 37.7 µL/min/mg and the inhibition at 10 µM (MAO-A) was 47%. The IC50 (Cytochrome P450 3A4) was 3500 nM, the half-life at 0.5 µM [12] was 36.9 min and the IC50 [15] was 10 nM. For the same compound, the CHI [17] was > 100, the Selectivity Index (Homo sapiens) was > 1000 and the IC50 (Cholinesterase) was 1100 nM. The “inhibition (INH)” value [21] was “Active” and the solubility kinetic at 2 h [22] was 2.4 µM (≈ 1.04 µg/mL).
